This note sets out measurements from patent US20250361230A1, “LATS Inhibitors and Uses Thereof” (The USA, as Represented by the Secretary, Dept. of Heath …, priority 2022, published 2025).

In assay [1] the target is T1, AKT Kinase-NanoLuc fusion in HEK-293 cells (Homo sapiens, UniProt P31749).
T1 construct: host or cells: HEK-293
In words: NanoBRET target engagement assay in transfected HEK-293 cells, AKT. The assay is classed as cell-based. Conditions: Table 28, NanoBRET, HEK-293 cells; read-out: AKT1 (Cellular) IC50. An excerpt: The NanoBRET™ assay measures kinase engagement in real time in the context of the intact cell. The assay uses a Kinase-NanoLuc® fusion vector expressing a kinase protein to which a luciferase tag has been added, a cell-permeant fluorescent NanoBRET™ tracer, a NanoLuc® substrate, and an extracellular NanoLuc® inhibitor. Upon expression of the luciferase-tagged kinase, cells will produce a strong BRET signal only in the presence of the NanoBRET™ tracer. The extracellular NanoLuc® inhibitor ensures that the BRET signal observed emanates only from live cells. Because the BRET signal has tight distance constraints, addition of the test compound will decrease the BRET signal if the compound competes with the NanoBRET™ tracer for binding to the kinase domain. Under the appropriate tracer conditions established by the manufacturer, quantitative intracellular affinity and relative potency can then be determined using Mass Action model equations.
HEK-293 cells were purchased from ATCC. FuGENEHD Transfection Reagent, Kinase-NanoLuc® fusion plasmids, Transfection Carrier DNA, NanoBRET™ Tracers and dilution buffer, NanoBRET™ Nano-Glo Substrate, Extracellular NanoLuc® Inhibitor were obtained from Promega.
Assays were conducted following Promega assay protocol with some modifications as described further below. HEK-293 Cells were transiently transfected with Kinase-NanoLuc® Fusion Vector DNA by FuGENE HD Transfection Reagent. Test compounds were delivered into 384 well assay plate by Echo 550 (Labcyte Inc, Sunnyvale, CA). Transfected cells were harvested and mixed with NanoBRET™ Tracer Reagent and dispensed into 384 well plates and incubated at 37° C. in 5% CO2 cell culture incubator for 1 hour. The NanoBRET™ Nano-Glo Substrate plus Extracellular NanoLuc® Inhibitor Solution were added into the wells of the assay plate and incubated for 2-3 minutes at room temperature. The donor emission wavelength (460 nm) and acceptor emission wavelength (600 nm) were measured in the EnVision plate reader. The BRET Ratios were calculated. BRET Ratio=[(Acceptor sample÷Donor sample)−(Acceptor no-tracer control÷Donor no-tracer control)]. The IC50 values of compounds were calculated with Prism GraphPad program.
• 1. Transient Transfection of HEK-293 Cells NanoLuc® Fusion Vector DNA • 1). Cultivate HEK-293 cells (70-80% confluence) appropriately prior to assay. Trypsinize and collect HEK-293 cells. • 2). Prepare lipid: DNA complexes as follows: • a. Prepare a […] solution of DNA in Opti-MEM™ without serum that consists of the following ratios of carrier DNA and DNA encoding NanoLuc® fusion. 9.0 µg/mL of Transfection Carrier DNA, […] of NanoLuc® fusion vector DNA and 1 mL of Opti-MEM™ without phenol red. Mix thoroughly. • b. Add 30 μl of FuGENE HD Transfection Reagent into each milliliter of DNA mixture to form lipid: DNA complex. • c. Mix by inversion 10 times. • d. Incubate at ambient temperature for 20 minutes to allow complexes to form. • 3). In a sterile, conical tube, mix 1 part of lipid: DNA complex with 20 parts of HEK-293 cells in suspension. Mix gently by inversion 5 times. • 4). Dispense cells+lipid: DNA complex into a sterile tissue culture dish and incubate for 22-24 hours. • 2. Addition of Test Compounds (dry plate shooting): Each test compound is delivered from the compound source plate to the wells of 384-well white NBS plate by Echo 550. • 3. Preparation of Cells with NanoBRET™ Tracer Reagent • 1). Remove medium from dish with transfected HEK-293 cells via aspiration, trypsinize and allow cells to dissociate from the dish. • 2). Neutralize trypsin using medium containing serum and centrifuge at 200× g for 5 minutes to pellet the cells. Adjust the cell density to 2×10^5 cells/mL in Opti-MEM™ without phenol red. • 3). Prepare Complete 20× NanoBRET™ Tracer Reagent with Tracer Dilution Buffer. • 4). Dispense one part of Complete 20× NanoBRET™ Tracer Reagent to 20 parts of cells in the tube. Mix gently by inversion 10 times. • 5). […]
(Bioluminescence resonance energy transfer reports proximity on the nanometre scale.)

In another assay the target is AKT (Homo sapiens, UniProt P31749). In words: RBC HotSpot kinase assay (33P-ATP, P81 filter-binding), AKT. The assay is classed as biochemical. Conditions: Table 28, biochemical kinase assay; read-out: AKT IC50. In a few lines:
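Kinase in Hepes pH 7.5 buffer with Mg2+, EGTA, Brij35, BSA, vanadate, DTT and 1% DMSO, plus required cofactors and substrate, was preincubated 20 min at room temperature with compound. Reaction was started with 33P-ATP and run 2 h, then detected by P81 filter binding. IC50 (nM) came from 10-point singlet curves.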

The term IC50 denotes the midpoint of a concentration-inhibition curve.

T1 sequence (P31749 whole entry, the tested form may be a part): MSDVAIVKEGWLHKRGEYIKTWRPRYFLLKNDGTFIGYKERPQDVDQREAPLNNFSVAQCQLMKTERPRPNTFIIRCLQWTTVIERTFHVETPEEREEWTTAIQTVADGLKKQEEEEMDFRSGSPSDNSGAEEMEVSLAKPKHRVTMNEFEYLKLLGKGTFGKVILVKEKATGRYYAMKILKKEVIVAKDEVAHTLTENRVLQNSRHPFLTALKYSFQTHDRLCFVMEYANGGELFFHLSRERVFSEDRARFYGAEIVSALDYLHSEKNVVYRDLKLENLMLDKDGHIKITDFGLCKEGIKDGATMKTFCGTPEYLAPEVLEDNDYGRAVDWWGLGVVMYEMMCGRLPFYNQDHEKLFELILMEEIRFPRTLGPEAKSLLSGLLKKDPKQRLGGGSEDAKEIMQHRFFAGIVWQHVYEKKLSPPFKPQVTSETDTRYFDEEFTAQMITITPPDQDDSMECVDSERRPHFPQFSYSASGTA
Sequence of AKT (P31749 whole entry): as the sequence (P31749 whole entry, the tested form may be a part) above

In the case of `Cc1cc(-c2ccnc3[nH]cc(F)c23)ccc1[C@@]1(O)[C@H](C)CN(C2CCS(=O)(=O)CC2)C[C@@H]1C` [Compound 55, 4-((3R,4s, 5S)-4-(4-(3-fluoro-1H-pyrrolo[2,3-b]pyridin-4-yl)-2-methylphenyl)-4-hydroxy-3,5S-dimethylpiperidin-1-yl)tetrahydro-2H-thiopyran 1,1-dioxide], the half-maximal inhibitory concentration (IC50) in assay [1] is 19800 nM; at AKT, 62.8 nM.

For `Cc1cc(-c2ccnc3[nH]cc(F)c23)cc(F)c1[C@@]1(O)[C@H](C)CN(C2CCS(=O)(=O)CC2)C[C@@H]1C` [Compound 57, 4-((3R,4s,5S)-4-(2-fluoro-4-(3-fluoro-1H-pyrrolo[2,3-b]pyridin-4-yl)-6-methylphenyl)-4-hydroxy-3,5-dimethylpiperidin-1-yl)tetrahydro-2H-thiopyran 1,1-dioxide], the 50% inhibitory concentration (IC50) is 31900 nM in assay [1] and 374 nM on AKT.

With `C[C@@H]1CN(C(=O)CN)C[C@H](C)[C@@]1(O)c1c(F)cc(-c2ccnc3[nH]cc(F)c23)cc1F` [Compound 58], the values for the IC50 (in assay [1]; on AKT) were 18200 nM and 621 nM, respectively.

Take `Cc1cc(-c2ccnc3[nH]cc(F)c23)ccc1[C@@]1(O)[C@H](C)CN(C(=O)CN)C[C@@H]1C` [Compound 60, 2-amino-1-((3R,4s,5S)-4-(4-(3-fluoro-1H-pyrrolo[2,3-b]pyridin-4-yl)-2-methylphenyl)-4-hydroxy-3,5-dimethylpiperidin-1-yl)ethan-1-one]: the 50% inhibitory concentration (IC50) in assay [1] was determined as 9350 nM; at AKT, 49.2 nM.

`Cc1cc(-c2ccnc3[nH]cc(F)c23)cc(F)c1[C@@]1(O)[C@H](C)CN(C(=O)CN)C[C@@H]1C` [Compound 61, 2-amino-1-((3R,4s,5S)-4-(2-fluoro-4-(3-fluoro-1H-pyrrolo[2,3-b]pyridin-4-yl)-6-methylphenyl)-4-hydroxy-3,5-dimethylpiperidin-1-yl)ethan-1-one]: the figures for the IC50 (in assay [1]; on AKT) were 3440 nM and 197 nM, respectively.

As for `C[C@@H]1CN(CC(N)=O)C[C@H](C)[C@@]1(O)c1c(F)cc(-c2ccnc3[nH]cc(F)c23)cc1F` [Compound 88, 2-((3R,4s,5S)-4-(2,6-difluoro-4-(3-fluoro-1H-pyrrolo[2,3-b]pyridin-4-yl)phenyl)-4-hydroxy-3,5-dimethylpiperidin-1-yl)acetamide], the half-maximal inhibitory concentration (IC50) is greater than 30000 nM in assay [1] and 323 nM at AKT.

For the molecule `C[C@@H]1CN(C2CCNCC2)C[C@H](C)[C@@]1(O)c1c(F)cc(-c2ccnc3[nH]cc(F)c23)cc1F` [Compound 90, (3R,4s,5S)-4-(2,6-difluoro-4-(3-fluoro-1H-pyrrolo[2,3-b]pyridin-4-yl)phenyl)-3,5-dimethyl-[1,4′-bipiperidin]-4-ol], the results for the half-inhibitory concentration (IC50) (in assay [1]; at AKT) were 32300 nM and 100 nM, respectively.

Consider `OC1(c2ccc(-c3ccnc4[nH]cc(F)c34)cc2)CCNCC1` [Compound 110, 4-(4-(3-fluoro-1H-pyrrolo[2,3-b]pyridin-4-yl)phenyl)piperidin-4-ol], for which the IC50 came to 13300 nM in assay [1] and 490 nM on AKT.

Consider `OC1(c2ccc(-c3ccnc4[nH]ccc34)cc2)CCNCC1` [Compound 111, 4-(4-(1H-pyrrolo[2,3-b]pyridin-4-yl)phenyl)piperidin-4-ol], for which the figures for the IC50 (in assay [1]; at AKT) were greater than 50000 nM and 1100 nM, respectively.

Consider `Cc1cc(-c2ccnc3[nH]cc(F)c23)cc(F)c1C1(O)CC2(CN(C3COC3)C2)C1` [Compound 139, 6-(2-fluoro-4-(3-fluoro-1H-pyrrolo[2,3-b]pyridin-4-yl)-6-methylphenyl)-2-(oxetan-3-yl)-2-azaspiro[3.3]heptan-6-ol], for which the IC50 was greater than 30000 nM in assay [1] and 698 nM at AKT.

For the molecule `O=C([C@H]1CCCN1)N1CCC(O)(c2ccc(-c3ccnc4[nH]cc(F)c34)cc2)CC1` [Compound 142], the values for the IC50 (in assay [1]; on AKT) were 39800 nM and 1350 nM, respectively.

As to `Fc1c[nH]c2nccc(-c3ccc(C4CCNCC4)cc3)c12` [Compound 169, 3-fluoro-4-(4-(piperidin-4-yl)phenyl)-1H-pyrrolo[2,3-b]pyridine], the IC50 in assay [1] was determined as 13300 nM; on AKT it was 1180 nM.

Regarding `Fc1c[nH]c2nccc(-c3ccc(C4CCNCC4)c(Cl)c3)c12` [Compound 172, 4-(3-chloro-4-(piperidin-4-yl)phenyl)-3-fluoro-1H-pyrrolo[2,3-b]pyridine], the half-maximal inhibitory concentration (IC50) in assay [1] was greater than 50000 nM; at AKT, 715 nM.

For `Clc1c[nH]c2nccc(-c3ccc(C4CCNCC4)cc3)c12` [Compound 173, 3-chloro-4-(4-(piperidin-4-yl)phenyl)-1H-pyrrolo[2,3-b]pyridine], the IC50 came to 73900 nM in assay [1] and 330 nM at AKT.

Turning to `Cc1cc(-c2ccnc3[nH]ccc23)ccc1C1CCNCC1` [Compound 177, 4-(3-methyl-4-(piperidin-4-yl)phenyl)-1H-pyrrolo[2,3-b]pyridine], the figures for the half-inhibitory concentration (IC50) (in assay [1]; at AKT) were 32000 nM and 684 nM, respectively.

Turning to `c1cc(-c2ccc(C3CC4CCC(C3)N4)cc2)c2cc[nH]c2n1` (stereo not drawn) [Compound 184, 4-(4-(8-azabicyclo[3.2.1]octan-3-yl)phenyl)-1H-pyrrolo[2,3-b]pyridine], the IC50 is 27400 nM in assay [1] and 940 nM on AKT.

As to `CC1CC(c2ccc(-c3ccnc4[nH]ccc34)cc2)CC(C)N1` (stereo not drawn) [Compound 187, 4-(4-(2,6-dimethylpiperidin-4-yl)phenyl)-1H-pyrrolo[2,3-b]pyridine], the IC50 in assay [1] is greater than 50000 nM; at AKT it was 1440 nM.

For `CC1(c2ccc(-c3ccnc4[nH]ccc34)cc2)CCNCC1` [Compound 201, 4-(4-(4-methylpiperidin-4-yl)phenyl)-1H-pyrrolo[2,3-b]pyridine], the IC50 in assay [1] is 7510 nM; on AKT, 200 nM.

For the molecule `Cc1cc(-c2ccnc3[nH]cc(F)c23)ccc1CN` [Compound 211, (4-(3-fluoro-1H-pyrrolo[2,3-b]pyridin-4-yl)-2-methylphenyl) methanamine], the half-maximal inhibitory concentration (IC50) turned out to be 22600 nM in assay [1] and 312 nM on AKT.

On to `NCc1ccc(-c2ccnc3[nH]cc(-c4ccccc4)c23)cc1-c1ccccc1` [Compound 219, (5-(3-phenyl-1H-pyrrolo[2,3-b]pyridin-4-yl)-[1,1′-biphenyl]-2-yl)methanamine], for which the concentration for half-maximal inhibition (IC50) in assay [1] is greater than 50000 nM; on AKT, 394 nM.

As for `COC(=O)c1c[nH]c2nccc(-c3ccc(CN)cc3)c12` [Compound 223, methyl 4-(4-(aminomethyl)phenyl)-1H-pyrrolo[2,3-b]pyridine-3-carboxylate], the values for the concentration for half-maximal inhibition (IC50) (in assay [1]; on AKT) were greater than 50000 nM and 13 nM, respectively.

As for `Cc1cccc(-c2c[nH]c3nccc(-c4ccc(CN)cc4)c23)c1` [Compound 230, (4-(3-(m-tolyl)-1H-pyrrolo[2,3-b]pyridin-4-yl)phenyl) methanamine], the 50% inhibitory concentration (IC50) in assay [1] was found to be 752 nM; at AKT, 1200 nM.

Turning to `CC(C)(N)c1ccc(-c2ccnc3[nH]cc(F)c23)cc1` [Compound 238, 2-(4-(3-fluoro-1H-pyrrolo[2,3-b]pyridin-4-yl)phenyl)propan-2-amine], the figures for the IC50 (in assay [1]; at AKT) were 9530 nM and 229 nM, respectively.

`NCc1ccc(-c2ccnc3[nH]cc(-c4cccnc4)c23)cc1` [Compound 245, (4-(3-(pyridin-3-yl)-1H-pyrrolo[2,3-b]pyridin-4-yl)phenyl) methanamine]: the IC50 in assay [1] is 3450 nM; at AKT, 751 nM.
